# US3952051A, “Method for crystallization of diamine dicarboxylate” (Asahi Kasei Kogyo Kabushiki Kaisha, priority 1971, dated 1976)
# Test: Size of crystals collected after neutralization
substance,measurement,setting,value
hexamethylenediamine adipate,Average size of crystals,"Example 1, from aqueous medium, pH 7.5, 60°C.",700 microns
same,Grain size of collected crystals,"comparative example, methanol as solvent",about 250 microns
